# Experimental data: ChEMBL document CHEMBL5046243, “Odookeanynes A and B, Acetylene-Containing Lipopeptides from an Okeania sp. Marine Cyanobacterium” (J Nat Prod, 2022)
# Square brackets hold non-standard residues; d marks the D form. Peptide text beside a SMILES is read from it. * marks the point of attachment. Pyrrolidine(2S-propanoyl) = CCC(=O)[C@@H]1CCCN1*; X2 = C#CCCCC[C@H](C)C[C@@H](C)C(=O)*; NMeI = CC[C@H](C)[C@H](NC)C(=O)O; X1 = C#CCCCCCC[C@@H](C)C(=O)*; NMeV = CN[C@H](C(=O)O)C(C)C
# Assays:
# 3T3-L1 = test: Cytotoxicity against mouse 3T3-L1 cells assessed as reduction in cell viability at 30 uM in presence of insulin measured after 3 days by MTT assay; format: toxicity, cell-based; details: 3t3-l1, 72 h, time 3 day
# [1] = Effect on preadipocyte differentiation in mouse 3T3-L1 cells assessed as lipid droplet accumulation at 10 uM in presence of insulin measured after 9 days by Oil Red O staining based assay; format: functional; details: time 9 day
SMILES,Activity (3T3-L1),fold change (FC) [1]
C#CCCCCCC[C@@H](C)C(=O)N(C)[C@H](C(=O)N(C)[C@H](C(=O)N1CCC[C@H]1C(=O)N(C)[C@H](C(=O)N1CCC[C@H]1C(=O)CC)C(C)C)[C@@H](C)CC)C(C)C (X1-[NMeV][NMeI]P[NMeV]-{Pyrrolidine(2S-propanoyl)}),Non-Toxic,1.9
C#CCCCC[C@H](C)C[C@@H](C)C(=O)N(C)[C@H](C(=O)N(C)[C@H](C(=O)N1CCC[C@H]1C(=O)N(C)[C@H](C(=O)N1CCC[C@H]1C(=O)CC)C(C)C)[C@@H](C)CC)C(C)C (X2-[NMeV][NMeI]P[NMeV]-{Pyrrolidine(2S-propanoyl)}),Non-Toxic,2.1
